Values joined by “and” are separate entries in the source; they are usually repeats but may differ in a detail not shown here. Equal values may be shown once. Toxic doses and inconclusive results are not listed. No stated cut-off is given here; in the data, active means T/C of 150% or more; inactive means T/C below 125%.
System: L1210 leukemia ip in BDF1 mice, survival T/C
Test: NCI In Vivo Anticancer Drug Screen. Data for tumor model L1210 Leukemia (intraperitoneal) in B6D2F1 (BDF1) mice
Conditions: endpoint: mean survival time, higher = longer survival
Summary of the method: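 Mice bearing the transplanted tumor received compound or vehicle. Survival of the treated group was divided by that of the vehicle-treated control group to give the ratio.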

[1] = dose: 100.0 mg/kg/injection, schedule: Q01DX001 (ip), vehicle: carboxymethylcellulose (CMC)
[2] = dose: 200.0 mg/kg/injection, schedule: Q01DX001 (ip), vehicle: carboxymethylcellulose (CMC)
[3] = dose: 400.0 mg/kg/injection, schedule: Q01DX001 (ip), vehicle: carboxymethylcellulose (CMC)
[4] = dose: 100.0 mg/kg/injection, schedule: Q04DX003 (ip), vehicle: saline
[5] = dose: 200.0 mg/kg/injection, schedule: Q04DX003 (ip), vehicle: saline
[6] = dose: 400.0 mg/kg/injection, schedule: Q04DX003 (ip), vehicle: saline

Measured: T/C

CCOC(=O)/C=C(\C)Nc1ccc(NC(C)=O)cc1
inactive: dose: 50.0 mg/kg/injection, schedule: Q01DX009 (ip), vehicle: water 107 % of control | dose: 100.0 mg/kg/injection, schedule: Q01DX009 (ip), vehicle: water 121 % of control | dose: 100.0 mg/kg/injection, schedule: Q04DX003 (ip), vehicle: water 96 % of control | dose: 200.0 mg/kg/injection, schedule: Q01DX009 (ip), vehicle: water 98 % of control | dose: 200.0 mg/kg/injection, schedule: Q04DX003 (ip), vehicle: water 96 % of control | dose: 400.0 mg/kg/injection, schedule: Q01DX009 (ip), vehicle: water 100 % of control | dose: 400.0 mg/kg/injection, schedule: Q04DX003 (ip), vehicle: water 101 % of control

O=C(O)CC1(C(=O)O)CC2C=CC1C2 (stereo unspecified)
inactive: [1] 97 % of control and 105 % of control | dose: 100.0 mg/kg/injection, schedule: Q04DX002 (ip), vehicle: carboxymethylcellulose (CMC) 97 % of control and 98 % of control | dose: 100.0 mg/kg/injection, schedule: Q04DX003 (ip), vehicle: carboxymethylcellulose (CMC) 95 % of control and 97 % of control | [2] 97 % of control and 91 % of control | dose: 200.0 mg/kg/injection, schedule: Q04DX002 (ip), vehicle: carboxymethylcellulose (CMC) 97 % of control and 90 % of control | dose: 200.0 mg/kg/injection, schedule: Q04DX003 (ip), vehicle: carboxymethylcellulose (CMC) 97 % of control and 87 % of control | [3] 99 % of control and 103 % of control | dose: 400.0 mg/kg/injection, schedule: Q04DX002 (ip), vehicle: carboxymethylcellulose (CMC) 87 % of control and 90 % of control | dose: 400.0 mg/kg/injection, schedule: Q04DX003 (ip), vehicle: carboxymethylcellulose (CMC) 94 % of control and 90 % of control

CCCCCC(C[N+](C)(C)C)C(O)/C=C\c1ccccc1 (stereo unspecified)
inactive: dose: 2.5 mg/kg/injection, schedule: Q01DX009 (ip), vehicle: saline 97 % of control | dose: 5.0 mg/kg/injection, schedule: Q01DX009 (ip), vehicle: saline 97 % of control | dose: 5.0 mg/kg/injection, schedule: Q04DX003 (ip), vehicle: saline 103 % of control | dose: 10.0 mg/kg/injection, schedule: Q01DX009 (ip), vehicle: saline 99 % of control | dose: 10.0 mg/kg/injection, schedule: Q04DX003 (ip), vehicle: saline 98 % of control

O=P(c1ccccc1)(c1ccccc1)N1CC1c1ccccc1 (stereo unspecified)
inactive: dose: 75.0 mg/kg/injection, schedule: Q01DX001 (ip), vehicle: carboxymethylcellulose (CMC) 96 % of control | dose: 150.0 mg/kg/injection, schedule: Q01DX001 (ip), vehicle: carboxymethylcellulose (CMC) 95 % of control | dose: 300.0 mg/kg/injection, schedule: Q01DX001 (ip), vehicle: carboxymethylcellulose (CMC) 90 % of control

O=C(Nc1cc(C(F)(F)F)ccc1Cl)c1cccc(C(=O)Nc2cc(C(F)(F)F)ccc2Cl)c1
inactive: dose: 12.5 mg/kg/injection, schedule: Q04DX003 (ip), vehicle: saline with Tween-80 93 % of control | dose: 25.0 mg/kg/injection, schedule: Q04DX003 (ip), vehicle: saline with Tween-80 96 % of control | dose: 50.0 mg/kg/injection, schedule: Q04DX003 (ip), vehicle: saline with Tween-80 95 % of control | dose: 200.0 mg/kg/injection, schedule: Q04DX003 (ip), vehicle: saline with Tween-80 87 % of control

COc1ccc(OC)c(NC(=O)NNC(=O)c2ccccc2Cl)c1
inactive: dose: 25.0 mg/kg/injection, schedule: Q01DX009 (ip), vehicle: saline with Tween-80 100 % of control | dose: 50.0 mg/kg/injection, schedule: Q01DX009 (ip), vehicle: saline with Tween-80 91 % of control | dose: 100.0 mg/kg/injection, schedule: Q01DX009 (ip), vehicle: saline with Tween-80 94 % of control

C=C(Br)CN1CCCC1=O
inactive: dose: 75.0 mg/kg/injection, schedule: Q01DX009 (ip), vehicle: saline 98 % of control | dose: 150.0 mg/kg/injection, schedule: Q01DX009 (ip), vehicle: saline 106 % of control | dose: 300.0 mg/kg/injection, schedule: Q01DX009 (ip), vehicle: saline 114 % of control

Cc1cccc(C)c1NC(=O)Nc1ccc(S(N)(=O)=O)cc1
inactive: dose: 100.0 mg/kg/injection, schedule: Q01DX009 (ip), vehicle: Klucel (hydroxypropylcellulose) (HPC) 100 % of control | dose: 100.0 mg/kg/injection, schedule: Q04DX003 (ip), vehicle: Klucel (hydroxypropylcellulose) (HPC) 101 % of control | dose: 200.0 mg/kg/injection, schedule: Q01DX009 (ip), vehicle: Klucel (hydroxypropylcellulose) (HPC) 95 % of control and 97 % of control | dose: 200.0 mg/kg/injection, schedule: Q04DX003 (ip), vehicle: Klucel (hydroxypropylcellulose) (HPC) 94 % of control | dose: 400.0 mg/kg/injection, schedule: Q01DX009 (ip), vehicle: Klucel (hydroxypropylcellulose) (HPC) 100 % of control and 88 % of control | dose: 400.0 mg/kg/injection, schedule: Q04DX003 (ip), vehicle: Klucel (hydroxypropylcellulose) (HPC) 92 % of control

C/C(=N\N)C(=O)S(=O)(=O)c1c(C)cc(C)cc1C
inactive: dose: 100.0 mg/kg/injection, schedule: Q01DX001 (ip), vehicle: Klucel (hydroxypropylcellulose) (HPC) 97 % of control | dose: 200.0 mg/kg/injection, schedule: Q01DX001 (ip), vehicle: Klucel (hydroxypropylcellulose) (HPC) 97 % of control | dose: 400.0 mg/kg/injection, schedule: Q01DX001 (ip), vehicle: Klucel (hydroxypropylcellulose) (HPC) 101 % of control

CCS(=O)(=O)c1ccc(NC(=O)OCc2ccccc2)cc1
inactive: [1] 94 % of control | [2] 94 % of control | [3] 92 % of control

CC(C)CC(C)(O)C(N)=O (stereo unspecified)
inactive: [4] 102 % of control | [5] 102 % of control | [6] 91 % of control

CC(=O)OC1C(C(N)=O)CC(C(=O)O)C1OC(C)=O (stereo unspecified)
inactive: dose: 100.0 mg/kg/injection, schedule: Q01DX001 (ip), vehicle: saline 112 % of control | dose: 200.0 mg/kg/injection, schedule: Q01DX001 (ip), vehicle: saline 114 % of control | dose: 400.0 mg/kg/injection, schedule: Q01DX001 (ip), vehicle: saline 106 % of control

CCCCCS(=O)(=O)N1CCCCCC1
inactive: dose: 100.0 mg/kg/injection, schedule: Q04DX002 (ip), vehicle: other 112 % of control | dose: 200.0 mg/kg/injection, schedule: Q04DX002 (ip), vehicle: other 87 % of control | dose: 400.0 mg/kg/injection, schedule: Q04DX002 (ip), vehicle: other 87 % of control

Cc1ccc(Oc2cccc3c[n+](C)ccc23)cc1
inactive: dose: 25.0 mg/kg/injection, schedule: Q04DX002 (ip), vehicle: DMSO 93 % of control | dose: 50.0 mg/kg/injection, schedule: Q04DX002 (ip), vehicle: DMSO 96 % of control | dose: 100.0 mg/kg/injection, schedule: Q04DX002 (ip), vehicle: DMSO 86 % of control

O=CNC(Cc1ccc(O)cc1)C(=O)O (stereo unspecified)
inactive: [4] 95 % of control | [5] 91 % of control | [6] 93 % of control
